We go through 63 compounds from a melting point compilation (Tetko et al.; mined from patent text by program, amines drawn as free bases though some values may be those of a salt).

As for `CNCc1cc2c(=O)c(C(=O)NCc3ccc(Cl)cc3)cn(C)c2s1`, the melting point (in general, the temperature, or range, at which the solid turns liquid) lay in the range of 196 to 199 °C. The value for `NCCNC(=S)Nc1c(Cl)cccc1Cl` was 136 to 138 °C; that for `C[C@H](N)C(=O)NCc1cccc(Nc2n[nH]c3ncnc(Nc4cccc(Cl)c4)c23)c1` was 222 to 225 °C. The value for `COCCNC(=O)c1cccc(-c2cccc3cc(Cc4cc(Cl)cc(Cl)c4)sc23)c1` was 109 to 110 °C; that for `CN(C)C=NS(=O)(=O)CCC(C)(C)CC#N` was 53 to 54 °C; that for `OC(CCc1ccccc1)c1cnc2sc3c(n12)CCC3` (stereo not drawn) was 117 to 118 °C. Then `O=C(Nc1cccc(C(F)(F)F)c1)N1COc2cc(O)ccc21`, with 173 to 174 °C; and `CNc1ccccc1C(=O)c1c(OC)cc(C)cc1OC`, with 215 °C; and `O=C(O)CCN1CCN2c3ccccc3Cc3ccccc3C2C1` (stereo not drawn), with 195 to 197 °C.

For the compound `ON=C1CCCCCCC1Cc1ccccc1` (stereo not drawn), the melting point was 117 to 119 °C. Then `CCCOc1cc(C#N)ccc1C(C)=O`, with 99.5 to 100 °C; and `CC(C)(C)C1=CC(=CC(=O)O)C=C(C(C)(C)C)C1=O`, with 148 to 150 °C; and `CC(C)OP(=O)(/C=C/C(CO)Cn1cnc2c(N)ncnc21)OC(C)C` (stereo not drawn), with 130 °C.

Regarding `CC(=O)N1C(=O)C(C(=O)Cc2cccs2)c2ccccc21` (stereo not drawn), the melting point was 136 to 137 °C.

As to `COc1ccc(C2=NN(c3ccc(C(=O)Nc4ccc(C5=NNC(=O)CC5C)cc4)cc3)C(=O)C3CC=CCC23)cc1OC` (stereo not drawn), the melting point was in the range of 249 to 250 °C. The compound `CCCCCOc1ccc(C(=O)NCCCCCCCNC(=O)c2ccc(OCCCCC)cc2)cc1` came in with a melting point of 155 to 156 °C.

In turn, `COc1ccc(SC(C)(CC=C(C)C)C(=O)NO)cc1` (stereo not drawn) returned a melting point of 89 °C.

With `O=c1c(CCCc2cnccn2)cc2cccnc2n1-c1cccc([N+](=O)[O-])c1`, the melting point is 194 to 195 °C. `CC(=O)Nc1ccc(OCCO[N+](=O)[O-])cc1`: the melting point lay in the range of 106 to 107 °C. The value for `Cc1cc([N+](=O)[O-])c2c(c1Cl)CC(CO)O2` (stereo not drawn) was 112 to 115 °C; that for `O=c1[nH]c2cc([N+](=O)[O-])c(S(=O)(=O)NCCO)cc2[nH]c1=O` was 281 to 289 °C.

`COc1ccc2c3c(c(=O)oc2c1)CN(Cc1ccccc1Cl)CC3` displayed a melting point of 137 to 139 °C. Then `COc1ccc(-c2cc(C(F)F)n3ncc(-c4ccncc4)c3n2)cc1`, with 206 °C; and `CC(=O)Nc1cc(C2=NOC(c3cc(Cl)cc(Cl)c3)(C(F)(F)F)C2)ccc1-n1cncn1` (stereo not drawn), with 230 to 233 °C; and `CCOC(=O)C(NC(=O)OC(C)(C)C)=C1CSCSC1`, with 154 °C. Then `O=c1ccoc(C(O)c2ccc(F)cc2)c1O` (stereo not drawn), with 154 to 156 °C; and `CC(=O)Nc1cccc(C(=O)Nc2cc(NC(=O)c3cccc(N(C)C)c3)ccc2C)c1`, with 178 to 179 °C. `CN(C)c1ccc(-n2c(CC(=O)O)c(C(=O)O)c3cc(Oc4ccc(OC(F)(F)F)cc4)ccc32)cc1` came in with a melting point of 188 to 192 °C. Then `CC(=O)c1ccc(/C=C(\C)c2ccc3c(c2)C(C)(C)CCC3(C)C)cc1`, with 148 to 149 °C; and `CC(=O)Nc1ccc(C(=O)O)cc1NC(=O)CO`, with 214 to 215 °C; and `O=C(N[C@H]1CCOC1=O)OCc1ccccc1`, with 129 to 130 °C. As for `CCCc1c(OCCCCCCc2ccc(C(=O)c3cccc(C(=O)O)c3)cc2CCC(=O)O)ccc2c1OCCC2=O`, the melting point is 137 to 139 °C. Compound `O=C(Nc1cnc2c(c1)nc1n2CCC1O)c1cc2cc(F)ccc2n1Cc1cccc(F)c1` (stereo not drawn) had a melting point of 288 to 290 °C. The value for `CCC(C)(C)NC(Nc1cc(Cl)cc(Cl)c1)=C(C#N)S(=O)(=O)c1ccc(Cl)cc1` was 189 to 192 °C; that for `O=C(O)c1ccc(S(F)(F)(F)(F)F)cc1` was 188 to 190 °C. The value for `COc1c(C)nc2sc(Cl)cn2c1=O` was 138 to 141 °C; that for `COc1cc(C=CC(=O)OC2C=C(C)C(=O)CC(C)(C)C2O)ccc1O` (stereo not drawn) was 142 °C.

As to `CC(=O)OCC1OC(N(CCCl)P(=O)(O)NCCCl)C(OC(C)=O)C(OC(C)=O)C1OC(C)=O` (stereo not drawn), the melting point came out at 91 °C. Then `COc1ccccc1NC(=O)C1=C(O)c2ccc3ccccc3c2S(=O)(=O)N1C`, with 198 to 200 °C; and `COc1cc(N2CCN([C@H]3CC[C@@H](c4cccs4)CC3)CC2)c2ncccc2c1`, with 184 to 186 °C; and `O=C(O)C1CN(S(=O)(=O)c2ccc3cc(Cl)ccc3c2)CCN1C(=O)C1CCN(c2ccncc2)CC1` (stereo not drawn), with 215 to 220 °C. In turn, `O=c1nc(-c2cccc(Cl)n2)sc2ccccc12` came in with a melting point of 224 to 225 °C. The value for `CCCCCCCCCCCCCCCCCCS(=O)(=O)c1cc(C(=O)O)c2c(c1)c(=O)on2C` was 177 to 179 °C. The value for `CCOC(=O)C1=C(C)NC2=C(C(=O)OC2)C1c1ccccc1[N+](=O)[O-]` (stereo not drawn) was 220 to 222 °C; that for `CCCCOc1ccc(-c2nc(Cl)c(C=O)[nH]2)cc1` was 74 °C; that for `CC(=O)OCC(C)(C)C(=O)N(O)Cc1ccccc1Cl` was 78 to 80 °C. The value for `Cc1nc(N2CCN(Cc3ccccc3)C2=O)sc1C(=O)NCc1cc(F)ccc1F` was 176 to 177 °C; that for `C=CCC(=O)c1cnn(-c2ccccn2)c1S(N)(=O)=O` was 140 to 142 °C.

The compound `C=C(C)C(=O)OCCCCCCOc1ccc(C(=O)Oc2ccc3ccc(=O)oc3c2)cc1` had a melting point of 98 to 104 °C. The value for `CN1CCN(Cc2cc(-c3ccccc3)c3c(n2)OCCN(Cc2cc(C(F)(F)F)cc(C(F)(F)F)c2)C3=O)CC1` was 181 to 182 °C. Then `CCCC(=O)Nc1cc([N+](=O)[O-])c(Sc2cccc3cnccc23)cc1N`, with 191 to 192 °C. `CC(=O)N1CCC(O)(c2ccccc2C)CC1` had a melting point of 145 to 146 °C.

In turn, `O=C(O)c1ccc2nc(-c3ccccc3)c(-c3ccccc3)nc2c1` gave a melting point of 290 to 292 °C. `COc1cc(F)cc(-c2ccc3c(c2)C(C)(C)OC(=S)N3)c1` came in with a melting point of 170 to 171 °C. Then `COC(=O)c1c(N(C)C(C)=O)cc(C)cc1N(C)C(C)=O`, with 163 to 164 °C. The value for `Cn1cc(-c2ccccc2)c(=O)c(-c2cccc(OC(F)(F)C(F)F)c2)c1` was 119 to 121 °C; that for `COc1cc(C(=O)O)c(O)c2c1C(C)(C)CCC2(C)C` was 213 °C. Then `Cc1cccc(-c2nc(N)c3ccccc3n2)n1`, with 201 °C; and `COC(=O)CCCC(=O)Nc1ccc(-c2ccc(C#N)cc2)cc1`, with 171 to 173 °C. `C=CC(CC(O)C(CC(C)C)NC(=O)C(Cc1c[nH]cn1)NC(=O)C(Cc1ccccc1)Cc1ccccc1)C(C)C` (stereo not drawn): the melting point was found to be 120 °C. The value for `COc1ccc2c(c1)c1c(n2Cc2ccccc2)CCCC1C(=O)N1CCN(c2ccccc2)CC1` (stereo not drawn) was 142 to 143 °C; that for `COc1cccc(C2SCCCS2)c1OC` was 119 to 120 °C. Then `N#Cc1cc(Br)c(O)c([N+](=O)[O-])c1`, with 162 to 164 °C.
